Laboratory results: PMC9220178, “Preclinical Characterization of Antioxidant Quinolyl Nitrone QN23 as a New Candidate for the Treatment of Ischemic Stroke” (Antioxidants, 2022)

Legend:
[1] = design: method as in PMID 30715875; conditions: in vitro; cited from earlier work
[2] = system: adult male Wistar rats, four-vessel occlusion (4VO) transient forebrain ischemia; assay: Long-term behavioral tests in the Y maze; type: in vivo, rat; conditions: 2.0 mg/kg i.v. at reperfusion onset, 11 weeks after ischemia
Description: Long-term assessment of neurological damage after the ischemic episode was performed by the evaluation of the spontaneous exploratory activity (spatial recognition) and spatial memory skills in the Y maze.
For the assessment of the exploratory activity and spatial recognition, control animals and ischemic animals treated with vehicle, QN23, or NXY-059 were placed in the center of the maze and allowed free exploration for 8 min. An independent researcher blind to the treatment allocation registered the total number of arms that the animal entered indistinctly (arm entries), and the times that the animal explored the three different arms of the maze consecutively (alternations or triads).
For the assessment of spatial memory, experiments consisted of two trials. For the first trial (training), control and ischemic animals treated with vehicle or QN23 were placed into one of the arms (start arm) and allowed to explore the Y maze for 10 min with one of the arms closed. One hour after the training trial, the animals were returned to the Y maze and the second trial was conducted. The animals were placed in the same start arm as in the training trial, but now with the remaining two arms of the maze available for exploration for 3 min. A researcher blind to the treatment allocation registered the first choice of arm for entry (novel or old).

[3] = system: male Wistar rats, transient middle cerebral artery occlusion (tMCAO); assay: Neurofunctional score in transient focal cerebral ischemia (tMCAO); type: in vivo; conditions: for Neurofunctional impairment compared with vehicle: 24 h and 48 h
Description: For the transient focal cerebral ischemia experimental model we used 12-week-old male Wistar rats (300–350 g, Charles River), housed under standard conditions with food and water ad libitum. The animals were anesthetized by an intraperitoneal injection of a mixture of 100 mg/kg ketamine, 5 mg/kg diazepam, and 0.3 mg/kg atropine. Anesthesia was maintained during the surgical procedure by inhalation of 1–1.5% sevoflurane in 80% medicinal air plus 20% O2. For the transient occlusion of the right middle cerebral artery (tMCAO, 60 min), we followed the intraluminal suture procedure as originally described, adapted to our experimental setup. The procedure included continuous monitoring of cortical perfusion (CP, by Laser-Doppler flowmetry), arterial blood pressure, and core temperature, and discontinuous measurement of glycemia levels during preischemia (basal), ischemia, and reperfusion stages. Buprenorphine (subcutaneous, 0.05 mg/kg) was used as an analgesic. Forty-eight hours after the ischemic insult, the animals were euthanized by intracardiac injection of potassium chloride (200 mg/kg) under deep anesthesia, and the brains were obtained.
A power analysis (see above) provided a sample size of 6 subjects per group. A total of 35 animals was used in this study. The animals were randomly assigned to four experimental tMCAO groups, treated with (1) vehicle; (2) QN23, 1.5 mg/kg; (3) QN23, 2.5 mg/kg; and (4) QN23, 4 mg/kg. QN23 was dissolved in vehicle and injected through the femoral vein 20 min after the end of tMCAO. Nine animals were excluded from the study, based on predefined criteria, because of death within the first 24 h after the procedure (1 vehicle, 1 QN23-treated at 2.5 mg/kg, and 4 QN23-treated at 4.0 mg/kg) or due to no infarct after the procedure (1 vehicle, 1 QN23-treated at 1.5 mg/kg, and 1 QN23-treated at 2.5 mg/kg). Experiments were conducted in compliance with the legislation on the protection of animals used for scientific purposes in Spain (RD 53/2013) and the EU (Directive 2010/63/EU). […]
Twenty-four and 48 hours after the ischemic insult, the rats’ neurofunctional status was evaluated following the procedure previously reported. The severity of functional deficits was determined with the sum of the score of four tests assessing (a) spontaneous activity (moving/exploring = 0, no moving or moving only when pushed = 1), (b) circling to the left (none = 0, circling when elevated by the tail and pushed = 1, circling without displacement, spinning = 2), (c) parachute reflex: protective abduction of forelimbs (symmetrical = 0, asymmetrical, contralateral forelimb retracted = 1), and (d) resistance to left forepaw stretching (not allowed = 0, allowed = 1). […]

## COc1ccc2nc(Cl)c(/C=[N+](\[O-])C(C)(C)C)cc2c1 [QN23, (Z)-N-tert-Butyl-1-(2-chloro-6-methoxyquinolin-3-yl)methanimine Oxide]
[1]
  Hydroxyl radical (·OH) scavenging: potent scavenger
[2]
  Y maze arm entries (exploratory activity): higher number of new entries
[2]; vehicle 5.0, control 15.75
  Y maze alternations (triads completed), spatial recognition: 7.8
[2]; vehicle 17%, control 75%
  Percentage of animals exploring the novel arm as a first choice (spatial memory): 67%
[3]; 1.5 mg/kg and 2.5 mg/kg i.v. 20 min after end of tMCAO
  Neurofunctional impairment compared with vehicle: significantly reduced
[3]; 2.5 mg/kg i.v., tMCAO
  Animals that died within 24 h: one
[3]; 4 mg/kg i.v. 20 min after end of tMCAO
  Neurofunctional impairment compared with vehicle: not at 4 mg/kg
[3]; 4 mg/kg i.v., tMCAO
  Animals that died before 24 h: four
